How the values were obtained:
[1] = pH at which the solution buffers out; assay type: physicochemical; details: in solution, residual on teat surface
[2] = tested on: teat area of animals; details: in vivo

Cc1ccc(S(=O)(=O)[N-]Cl)cc1.[Na+] [CHT, Chloramine T]
pH at which it naturally buffers out [1]: about 9
irritation of the teat area [2]: do not irritate the teat area
